Entries after “also recorded” stand apart in the source; their conditions may differ. Where two headings read alike, the source gives them in different places.
Legend:
[1] = Oral absorption in mice (oral/i.p. ratios); format: in vivo
Excerpt: The extent of oral absorption can be determined from the ratio of the oral ED50/i.p. […] In mice the oral TD50/i.p. TD50 and oral ED50/i.p.

[2] = Phase I anticonvulsant screening (MES and scMet tests); details: in words
[3] = mouse, in vivo
Protocol: (§1) The drugs were administered either orally or intraperitoneally in a volume of 0.01 ml/g body weight in mice and 0.04 ml/10 g in rats. All tests were conducted at the previously determined time of peak drug effect.
(§2) The profile of toxicity for each test drug was established by the following procedures: firstly, the minimal neurotoxic dose (TD50) was determined by the rotorod procedure at the time of peak neurotoxic effect. When a normal mouse is placed on a knurled rod one inch in diameter rotating at a speed of six rpm it can maintain its equilibrium for long periods of time. Neurological deficit is indicated by inability of the mouse to maintain its equilibrium for one minute in each of three trials on this rotating rod. Neurological deficit in rats is indicated by ataxia, loss of placing response and muscle tone. […] These observations also provide preliminary information essential for the subsequent determination of the HD50 and LD50. The HD50 represents the median dose at which 50% of animals lose their righting reflex.

in vivo [4] = details: mouse, in vivo; for selectivity ratio: mice, i.p.
Protocol: as §2

[5] = Subcutaneous Metrazol Seizure Threshold Test (sc Met) in mice; details: for ED50: Mus musculus
Protocol: (§3) All animals were allowed free access to both food (S/L Custom Lab Diet-7) and water, except when they were removed from their cages for the experimental procedure.
as §1
(§4) The profile of anticonvulsant activity for each substance was established by five tests: one electrical and four chemical. The electrical test employed was the maximal electroshock seizure pattern test. […] Except for the sc Strych Test, these tests measure the ability of anticonvulsants to afford complete protection against threshold seizures induced by the subcutaneous injection of the CD97 of the convulsant agent.
(§5) All convulsants were administered subcutaneously into a loose fold of skin on the back of the neck in a volume of 0.01 ml/g body weight in mice; Metrazol was injected in a volume of 0.02 ml/10 g body weight in rats. The convulsant drugs were administered at the previously determined time of peak anticonvulsant action of the drug under study. […] Except for strychnine, absence of a five-second episode of clonic spasms (threshold seizure) was taken as protection. In the case of strychnine, complete abolition of the hindleg tonic extension was taken as protection.

[6] = Time of peak effect (TPE) over several tests in rats; details: p.o., Compound 9: toxicity, MES and sc Met tests
Protocol: as §1

in vivo [7] = details: mouse
Protocol: as §1, §2

[8] = set-up: species or system mice; details: mouse, in vivo, ip, 1132 mg/kg
Protocol: Consequently, it was necessary to administer the high doses required for the righting reflex and 24-hour lethality tests in mice in double the volume. In view of this fact, additional studies were done to determine the effect of this double volume on the time of peak effect of the test substance. […] […]. Moreover, 1, 3, and 4 of the 8 mice were dead at 20, 40, and 46 hours, respectively. […] Accordingly, additional pharmacokinetic and pharmacodynamic studies will be done in order to reveal mechanisms that may contribute to the long TPE for neurotoxicity and the abnormally low ratio between the minimal-toxic dose and the 24-hour lethal dose.

in vivo [9] = test: in vivo; set-up: species or system mice; details: mouse, in vivo, ip
Protocol: as §2

[10] = not given; remark: listed apart in the source
[11] = Time of peak effect (TPE) over several tests in mice
Protocol: as §1

[12] = not given; remark: listed apart in the source
[13] = Subcutaneous Metrazol Seizure Threshold Test (sc Met) in rats; format: in vivo, rats (male albino, Sprague Dawley)
Protocol: as §1, §4, §5

[14] = Phase III Toxicity Profile in mice i.p. (overt signs of toxicity); format: in vivo
Excerpt: […]. […] […]. […] […].

[15] = not given; remark: listed apart in the source
[16] = Maximal electroshock seizure (MES) pattern test in rats; format: in vivo, rats (male albino, Sprague Dawley)
Protocol: as §3, §1, §4

[17] = format: in vivo; details: Phase V, mice, i.p.
Protocol: as §4, §5

in vivo [18] = details: rat, po
Protocol: as §1, §2

[19] = mouse, in vivo; remark: listed apart in the source
Protocol: as §3, §1, §4, §5

animal or person = details: Mus musculus, sc, read-out: sc CD97 of bicuculline
Protocol: as §4, §5

[20] = 300 mg/kg, four hours after administration
[21] = mice, i.p., from safety ratio TD3/ED97

Q: Which “absorption after oral administration” value [1] does the source give for `Clc1ccc(N2N=NCC2c2ccncc2)cc1` (stereo not shown) [Compound 9, 1-(p-Chlorophenyl)-5-(4-pyridyl)-Δ^2-1,2,3-triazoline] here?
A: Its value is “adequately absorbed in mice after oral administration”.

Q: And the anticonvulsant potency [2]?
A: Its anticonvulsant potency is “most potent”.

Q: And the “TPE (rotorod)” value ([3]; ip)?
A: The value was 12 and 20.

Q: And the “TPE by the rotorod test” value ([3]; po)?
A: The value was 24 h.

Q: What about the deaths ([3]; po, 600 mg/kg) of the same compound?
A: The deaths was 1 of 8.

Q: And the “deaths (of 8)” value ([3]; po, 700 mg/kg)?
A: Its value is 6.

Q: What about the deaths ([3]; po, 800 mg/kg) of the same compound?
A: Its deaths is 1 of 8.

Q: And the deaths ([3]; po, 1000 mg/kg)?
A: Its deaths is 4 of 8.

Q: What about the “selectivity (slope of regression line), 24-hour lethality” value (in vivo [4]) of the same compound?
A: Its value is “lack of selectivity (flat regression lines)”.

Q: And the “margin between the minimal toxic dose and the 24-hour lethal dose” value (in vivo [4]; ip)?
A: The value was “probably not satisfactory”.

Q: And the selectivity ratio (in vivo [4]; ip, 24-hour LD50, rotorod TD50, read-out: Ratio LD50/TD50)?
A: The selectivity ratio was 1.88.

Q: And the selectivity ratio (in vivo [4]; ip, 24-hour LD50, read-out: Ratio LD50/HD50)?
A: The selectivity ratio was 1.04.

Q: And the LD50 at 24 h (in vivo [4]; ip, read-out: LD50 (lethality))?
A: The LD50 at 24 h was 2130 mg/kg.

Q: And the anti-Metrazol activity [5, 20]?
A: The anti-Metrazol activity was “anti-Metrazol activity was present”.

Q: What about the ED50 ([5]; ip, read-out: ED50 sc Met) of the same compound?
A: The ED50 was 43.5 mg/kg.

Q: And the ED50 ([5]; po, read-out: ED50 scMet)?
A: The ED50 was 153 mg/kg.

Q: And the “effectiveness by the sc Met test” value ([5]; Phase V, mice, i.p.)?
A: Its value is “effective against sc Met, sc Bic, and sc Pic in nontoxic doses”.

Q: And the “safety ratio TD3/ED97, sc Met” value ([5]; mice)?
A: The value was 3.44.

Q: What about the “Protective Index (P.I.) = TD50/ED50, sc Met” value ([5]; mice, i.p.) of the same compound?
A: The value was 26.02.

Q: What about the “Time of Test / time of peak effect (TPE), sc Met” value ([5]; mice, i.p.) of the same compound?
A: Its value is 1/2.

Q: And the “mice protected, sc Met, nontoxic doses” value [5, 21]?
A: Its value is 97%.

Q: And the “24-hour LD50/ED50 safety ratio by the sc Met test” value ([5]; mice, in words)?
A: Its value is “high”.

Q: And the “profile of anticonvulsant activity, Metrazol” value ([5]; nontoxic doses)?
A: Its value is “elevate the Metrazol seizure threshold in nontoxic doses”.

Q: And the TPE [6]?
A: Its TPE is “six”.

Q: What about the “P.I. by the sc Pic test compared with phenobarbital, ethosuximide and valproate” value (Phase V, mice, i.p.) of the same compound?
A: The value was “compares favorably with those for phenobarbital, ethosuximide, and valproate”.

Q: And the “effectiveness by the sc Pic test” value (Phase V, mice, i.p.)?
A: Its value is “lesser effectiveness by the sc Pic test”.

Q: What about the “selectivity (slope of regression line), sc Pic test” value (in words) of the same compound?
A: Its value is “lack of selectivity (flat regression lines)”.

Q: What about the selectivity ratio (in vivo [7]) of the same compound?
A: Its selectivity ratio is 0.62.

Q: And the TD50 (in vivo [7]; ip)?
A: The TD50 was 1130 mg/kg.

Q: And the TD50 (in vivo [7]; po)?
A: Its TD50 is 705 mg/kg.

Q: What about the “gross examination of the peritoneal cavity” value [8] of the same compound?
A: The value was “an unevacuated stomach that was approximately three times normal size; an empty, flaccid small intestine; and a vermiform appendix markedly enlarged from flatus”.

Q: What about the “Slope, regression line, HD50 (righting reflex)” value (in vivo [9]) of the same compound?
A: The value was 4.27.

Q: What about the TD50 (in vivo [9]) of the same compound?
A: Its TD50 is 2050 mg/kg.

Q: What about the “Time of Test / time of peak toxicity, righting reflex” value (in vivo [9]) of the same compound?
A: The value was 24 h.

Q: And the “P.I. against sc Bic, times higher than that for phenobarbital” value ([10]; Phase V, mice, i.p.)?
A: Its value is “fifty”.

Q: What about the “effectiveness by the sc Bic test” value ([10]; Phase V, mice, i.p.) of the same compound?
A: The value was “effective against sc Met, sc Bic, and sc Pic in nontoxic doses”.

Q: What about the “P.I. derived from the sc Bic test” value ([10]; in words) of the same compound?
A: Its value is “high”.

Q: What about the “TPE by the anticonvulsant tests” value ([11]; p.o.) of the same compound?
A: Its value is “one-half”.

Q: What about the “TPE after oral compared with intraperitoneal administration” value ([11]; p.o. vs i.p.) of the same compound?
A: The value was “significantly different from that obtained after intraperitoneal administration”.

Q: What about the “neurotoxicity, rats compared with mice” value ([12]; rat, in vivo, po) of the same compound?
A: The value was “significantly more neurotoxic in rats than it is in mice”.

Q: And the “toxicity relative to phenobarbital” value ([12]; rats, p.o.)?
A: The value was “one-fifth to one-sixth”.

Q: And the ED50 ([13]; Rattus norvegicus, po, rats, p.o., read-out: ED50 sc Met)?
A: Its ED50 is 278 mg/kg.

Q: What about the “anticonvulsant potency by sc Met, rats compared with mice” value ([13]; oral administration) of the same compound?
A: The value was “no significant difference in the anticonvulsant potency”.

Q: And the “97% protection in nontoxic doses, sc Met” value ([13]; rats, p.o.)?
A: Its value is “do not provide 97% protection”.

Q: And the toxicity profile ([14]; mice, i.p., 1TD50, 2TD50's and 4TD50's)?
A: The toxicity profile was “decreased motor activity, ataxia, decreased respiration and cyanosis”.

Q: And the “toxicity at the end of 24 hours” value ([14]; mice, i.p., 2TD50's)?
A: Its value is “One of two animals given 2TD50's was still ataxic and cyanotic at the end of 24 hours”.

Q: And the “dead 24 hours after drug administration” value ([14]; mice, i.p., 4TD50's)?
A: The value was “Both mice given 4TD50's of Compound 9 were dead 24 hours after drug administration”.

Q: What about the rotorod toxicity ([14]; mouse, in vivo, ip) of the same compound?
A: Its rotorod toxicity is “one of two animals given 4TD50's displayed rotorod toxicity”.

Q: And the “activity by the MES test” value [15, 20]?
A: The value was “ineffective by the MES test (although the tonic extension was slow)”.

Q: What about the “ED50 MES” value ([15]; mice, i.p.) of the same compound?
A: The value was 257.42 mg/kg.

Q: And the “Protective Index (P.I.) = TD50/ED50, MES” value ([15]; mice, i.p.)?
A: The value was 4.40.

Q: What about the “Time of Test / time of peak effect (TPE), MES” value ([15]; mice, i.p.) of the same compound?
A: The value was 1/2.

Q: And the “mice protected, MES, nontoxic doses” value [15, 21]?
A: Its value is 97%.

Q: What about the “ED50 MES” value ([15]; mice, p.o.) of the same compound?
A: The value was 290.72 mg/kg.

Q: What about the “potency relative to phenobarbital, MES” value ([15]; mice, p.o.) of the same compound?
A: Its value is 1/15.

Q: What about the “potency relative to phenytoin, MES” value ([15]; mice, p.o.) of the same compound?
A: The value was 1/32.

Q: And the “97% protection in nontoxic doses, oral” value ([15]; mice, p.o., MES)?
A: The value was “the same level of protection is obtained only in mice subjected to the MES test”.

Q: And the “oral ED50/i.p. ED50, MES” value ([15]; mouse, in vivo)?
A: The value was 1.13.

Q: What about the “safety ratio TD3/ED97, MES” value ([15]; mouse, in vivo) of the same compound?
A: The value was 1.13.

Q: What about the “P.I. by the MES test” value ([15]; mouse, in vivo, po) of the same compound?
A: The value was 2.42.

Q: What about the “profile of anticonvulsant activity, electroshock” value ([15]; nontoxic doses) of the same compound?
A: The value was “ability to modify maximal electroshock seizure pattern”.

Q: And the ED50 ([16]; Rattus norvegicus, po, rats)?
A: Its ED50 is 266 mg/kg.

Q: And the “anticonvulsant potency by MES, rats compared with mice” value ([16]; oral administration)?
A: Its value is “no significant difference in the anticonvulsant potency”.

Q: And the “97% protection in nontoxic doses, MES” value ([16]; rats, p.o.)?
A: Its value is “do not provide 97% protection”.

Q: And the “effectiveness by the sc Strych test” value [17]?
A: The value was “not effective against sc Strych; also recorded: ineffective after i.p. administration in mice by the sc Strych test”.

Q: What about the TD50 (in vivo [18]) of the same compound?
A: Its TD50 is 394 mg/kg.

Q: What about the “oral ED50/i.p. ED50, sc Met” value [19] of the same compound?
A: Its value is 3.50.

Q: And the “P.I. by the scMet test” value ([19]; po)?
A: Its value is 4.62.

Q: And the “P.I. derived from the sc Met test” value ([19]; sc)?
A: Its value is “high”.

Q: Which ED97 (animal or person) does the source give for `CN1CCc2cc3c(cc2[C@H]1[C@@H]1OC(=O)c2c1ccc1c2OCO1)OCO3` [bicuculline] here?
A: Its ED97 is 2.7 mg/kg.

Reference: patent US4618681A, “Aryl substituted 1H-4,5-dihydro-1,2,3-triazoles as anticonvulsants” (priority 1984, dated 1986)
